Data reported in patent publication US11591334B2, “Substituted pyrrolizines for the treatment of hepatitis B” (SHANGHAI LONGWOOD BIOPHARMACEUTICALS CO., LTD., priority 2017, dated 2023).
Where two headings read alike, the source gives them in different places.

What was measured:
C150 protein = target: T1, C150 protein (Hepatitis B virus genotype D subtype adw, UniProt P03147, C107A/C48A/C61A/R150C); assay: In vitro anti-HBV nucleocapsid assembly activity test (Experiment 1, protein experiment); format: biochemical
T1 construct: purchased WuXi Apptec Co., Ltd
T1 sequence (P03147 1-150 C48A/C61A/C107A/R150C): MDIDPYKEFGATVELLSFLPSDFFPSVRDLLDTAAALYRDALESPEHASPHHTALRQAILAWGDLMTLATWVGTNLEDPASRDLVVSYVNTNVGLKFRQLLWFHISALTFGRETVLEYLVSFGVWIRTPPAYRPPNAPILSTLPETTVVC
Description: Experiment 1: In Vitro Anti-HBV Nucleocapsid Assembly Activity Test
Main Reagents and Raw Materials:
C150 protein was expressed and purified by WuXi Apptec Co., Ltd.
BoDIPY® FL was purchased from Thermo Fisher Scientific.
Protein Fluorescent Label:
150 μL of 2% w/v skimmed milk was added into each well of 96-well plate, and incubated at room temperature for 2 hours. The skimmed milk was aspirated. The plate was washed with deionized water and dried, and stored at room temperature. C150 protein (3 mg per tube) was desalted with 5 ml Hitrap desalting column. The desalted C150 protein of each tube was added with 50 mM BoDIPY® FL Fluorescent Dye (20 μl), and incubated under 4° C. overnight in the dark after well mixed. Sephadex G-25 gel was used for filtration to remove fluorescent dyes that were not bounded onto C150. The C150 fluorescent labeling efficiency was calculated according to the following equation: [BoDIPY®FL]=A504/78,000 M^−1; [C150Bo]=(A280−[BoDIPY®FL]×1300 M^−1)/60,900 M^−1; Fluorescent Labeling Efficiency=[BoDIPY®FL]/[C150Bo];
The mother liquor of compound was diluted with DMSO to 6 mM, then diluted to 600 μM with 50 mM HEPES, and then further 3-fold diluted with 10 DMSO/50 mM HEPES to 8 concentrations.
C150Bo was diluted to 2 μM with 50 mM HEPES. 37.5 μL of C150Bo and 2.5 μL of compound at each concentration were added into a 96 well plate and well mixed, then incubated at room temperature for 15 minutes. 10 μl of 750 mM NaCl/50 mM HEPES were added into the each reaction well, and the final concentration of NaCl was 150 mM.
Into the control wells in the 0% protein group 10 μL of 50 mM HEPES was added, and the final concentration of NaCl was 0 mM.
Into the control wells in the 100% protein group 10 μL of 5 M/50 mM HEPES was added, and the final concentration of NaCl was 1 M.
The final concentration of DMSO was 0.5%, the maximum final concentration of the compound was 30 μM, and final concentration of C150Bo was 1.5 μM. The mixture was incubated at room temperature for 1 hour. Fluorescence signal was measured (excitation light was 485 nm; emission light was 535 nm).
Data Analysis % protein assembly=[1−(Sample fluorescence value−1 M NaCl fluorescence value)/(0 M NaCl fluorescence value−1 M NaCl fluorescence value)]×100.
IC50 value was calculated by prism software, and the equation was as follows: Y=Bottom+(Top−Bottom)/(1+10^((LogIC50−X)HillSlope));

HBV = assay: Determination of anti-HBV activity in HepG2.2.15 cell (Experiment 2, HBV DNA in supernatant by qPCR); format: cell-based; conditions: Hepatitis B virus; HepG2.2.15 cells, HBV DNA in supernatant on the eighth day, qPCR; read-out: Experiment 2 Cell experiment EC50
Description: Experiment 2: Determination of Anti-HBV Activity in HepG2.2.15 Cell
(§1) Compound dilution. All the compounds for in vitro anti-HBV activity assay and cytotoxicity assay were 3-fold diluted into 8 concentrations. The final concentration of the tested compound was 30 μM, the final starting concentration of reference compound GLS4 was 1 μM, and the final concentration of DMSO was 0.5%.
HepG2.2.15 cell (4×10^4 cell/well) was inoculated into 96 well plate, and cultured overnight in 37° C., 5% CO2. On the second day, fresh culture medium containing different concentrations of the compound was added into the culture wells. On the fifth day, the old culture solution in the culture well was aspirated and fresh culture medium containing different concentrations of the compound was added.
On the eighth day, the supernatant in the culture well was collected for extraction of HBV DNA, and the content of DNA in the supernatant of HepG2.2.15 HBV was detected by qPCR. After the supernatant was collected, the medium and Cell-titer Glo reagent were added into the culture well, and the chemiluminescence value of each well was measured by microplate reader.
The activity calculation formula was as follows: Y=Bottom+(Top−Bottom)/(1+10^((LogIC50−X)*Hillslope));

[1] = Determination of cytotoxicity (Experiment 3, resazurin assay); format: cell-based; conditions: human; HepG2 cells, incubated for 4 days, resazurin assay; read-out: Experiment 3 Cytotoxicity CC50
Description: as §1, with “0.5%. Experiment 3: Determination of Cytotoxicity The cytotoxicity of the test compound was tested using HepG2 cells. The cells were incubated for 4 days in the presence of the test compound. Cell activity was assessed using the resazurin assay.” for “0.5%.”

[2] = fluorescently labeled C150 (C150Bo) 1.5 μM, 150 mM NaCl, 1 hour at room temperature, read-out: Experiment 1 Protein experiment IC50

Row | Structure (SMILES) | IC50 (C150 protein; [2]) [nM] | EC50 (HBV) [nM] | CC50 at 4 days [1] [nM] | IC50 (C150 protein) [nM]
1 | CC(CO)NS(=O)(=O)c1c(Cl)c(C(=O)Nc2cc(F)nc(C#N)c2)n2c1CCC2 (stereo not drawn) [Compound 20ff] | 1000 to 100000 | 0.1 to 100 | > 30000 | –
2 | Cc1c(S(=O)(=O)NC(C)CO)c2n(c1C(=O)Nc1ccnc(C(F)F)c1)CCC2 (stereo not drawn) [Compound 20ii] | 1000 to 100000 | 100 to 1000 | > 30000 | –
3 | Cc1c(S(=O)(=O)NC(C)CO)c2n(c1C(=O)Nc1cc(F)nc(C#N)c1)CCC2 (stereo not drawn) [Compound 20jj] | 1000 to 100000 | 100 to 1000 | > 30000 | –
4 | O=C(Nc1ccc(F)c(F)c1)c1c(Cl)c(S(=O)(=O)NC2C3CCC2CC(O)(CO)C3)c2n1CCC2 (stereo not drawn) [Compound 20kk] | 1000 to 100000 | 0.1 to 100 | > 30000 | –
5 | N#Cc1cc(NC(=O)c2c(Cl)c(S(=O)(=O)NC3C4CCC3CC(O)(CO)C4)c3n2CCC3)cc(F)n1 (stereo not drawn) [Compound 20ll] | 1000 to 100000 | 0.1 to 100 | > 30000 | –
6 | C[C@@H](NS(=O)(=O)c1c(Cl)c(C(=O)Nc2ccc(F)c(F)c2)n2c1C=CCC2)C(F)(F)F [Compound 30a] | < 1000 | 0.1 to 100 | > 30000 | –
7 | C[C@@H](NS(=O)(=O)c1c(Cl)c(C(=O)Nc2ccc(F)c(C#N)c2)n2c1C=CCC2)C(F)(F)F [Compound 30b] | – | 0.1 to 100 | > 30000 | 1000 to 100000
8 | C[C@@H](NS(=O)(=O)c1c(Cl)c(C(=O)Nc2ccnc(Cl)c2)n2c1C=CCC2)C(F)(F)F [Compound 30c] | – | 0.1 to 100 | > 30000 | 1000 to 100000
9 | Cc1c(S(=O)(=O)NC2C3CCC2CC(O)(CO)C3)c2n(c1C(=O)Nc1ccc(F)c(F)c1)CCC=C2 (stereo not drawn) [Compound 30r] | 1000 to 100000 | 0.1 to 100 | > 30000 | –
10 | N#Cc1cc(NC(=O)c2c(Cl)c(S(=O)(=O)NC3C4CCC3CC(O)(c3cc(-c5ccccc5)on3)C4)c3n2CCC=C3)cc(F)n1 (stereo not drawn) [Compound 30s] | 1000 to 100000 | 100 to 1000 | > 30000 | –
11 | Cc1c(S(=O)(=O)NC2C3CCC2CC(O)(c2cc(-c4ccccc4)on2)C3)c2n(c1C(=O)Nc1cc(F)nc(C#N)c1)CCC=C2 (stereo not drawn) [Compound 30t] | 1000 to 100000 | 100 to 1000 | > 30000 | –
12 | C[C@@H](NS(=O)(=O)c1c(Cl)c(C(=O)Nc2ccc(F)c(F)c2)n2c1CCCC2)C(F)(F)F [Compound 40a] | < 1000 | 0.1 to 100 | > 30000 | –
13 | C[C@@H](NS(=O)(=O)c1c(Cl)c(C(=O)Nc2ccc(F)c(C#N)c2)n2c1CCCC2)C(F)(F)F [Compound 40b] | – | 0.1 to 100 | > 30000 | 1000 to 100000
14 | C[C@@H](NS(=O)(=O)c1c(Cl)c(C(=O)Nc2ccnc(Cl)c2)n2c1CCCC2)C(F)(F)F [Compound 40c] | – | 0.1 to 100 | > 30000 | 1000 to 100000
15 | CC(NS(=O)(=O)c1c(Cl)c(C(=O)Nc2cc(F)nc(C#N)c2)n2c1CCCC2)C(F)(F)F (stereo not drawn) [Compound 40d] | 1000 to 100000 | 0.1 to 100 | > 30000 | –
16 | Cc1c(S(=O)(=O)NC(C)C(F)(F)F)c2n(c1C(=O)Nc1ccc(F)c(F)c1)CCCC2 (stereo not drawn) [Compound 40e] | 1000 to 100000 | 0.1 to 100 | > 30000 | –
17 | Cc1c(S(=O)(=O)NC(C)C(F)(F)F)c2n(c1C(=O)Nc1ccc(F)c(C#N)c1)CCCC2 (stereo not drawn) [Compound 40f] | 1000 to 100000 | 0.1 to 100 | > 30000 | –
